Experimental data published in article PMC12005767 (Advanced Science, 2025).
Like-named read-outs stand apart in the source and are kept apart here.

Tests used:
AML12 cells [1] = assay: Mitochondrial activity (Mito-Tracker, Seahorse OCR) in FFA-treated AML12 cells; format: cell-based
HDAC9 = molecular target: T1, HDAC9 (Homo sapiens, UniProt Q9UKV0); assay: In vitro HDACs inhibition fluorescence assay, HDAC9; format: biochemical; conditions: mean ± SEM
T1 construct: purchased BPS Bioscience
Procedure: (§1) In Vitro HDACs Inhibition Fluorescence Assay: For the inhibitory activity against HDAC1‐10, enzymes were also procured from BPS Bioscience. The in vitro […] inhibition assays were conducted following the established method described previously.^[ [45] ^] The working concentrations of HDAC1‐10 were 4 × 10^−9 M. The fluorogenic substrate of HDAC1, 2, 3, and 6 was Boc‐Lys (acetyl)‐AMC, and the substrate of HDAC4, 5, 7, 8, 9, and 10 was Boc‐Lys (trifluoroacetyl) AMC. The developer solution consists of 30 mg mL^−1 trypsin and 5 × 10^−6 M TSA. A standing period of 30 min was sufficient before assessing the fluorescence intensity.

HDAC1 = molecular target: T2, HDAC1 (Homo sapiens, UniProt Q13547); assay: In vitro HDACs inhibition fluorescence assay, HDAC1; format: biochemical; conditions: mean ± SEM
T2 construct: purchased BPS Bioscience
T2 sequence (Q13547 whole entry): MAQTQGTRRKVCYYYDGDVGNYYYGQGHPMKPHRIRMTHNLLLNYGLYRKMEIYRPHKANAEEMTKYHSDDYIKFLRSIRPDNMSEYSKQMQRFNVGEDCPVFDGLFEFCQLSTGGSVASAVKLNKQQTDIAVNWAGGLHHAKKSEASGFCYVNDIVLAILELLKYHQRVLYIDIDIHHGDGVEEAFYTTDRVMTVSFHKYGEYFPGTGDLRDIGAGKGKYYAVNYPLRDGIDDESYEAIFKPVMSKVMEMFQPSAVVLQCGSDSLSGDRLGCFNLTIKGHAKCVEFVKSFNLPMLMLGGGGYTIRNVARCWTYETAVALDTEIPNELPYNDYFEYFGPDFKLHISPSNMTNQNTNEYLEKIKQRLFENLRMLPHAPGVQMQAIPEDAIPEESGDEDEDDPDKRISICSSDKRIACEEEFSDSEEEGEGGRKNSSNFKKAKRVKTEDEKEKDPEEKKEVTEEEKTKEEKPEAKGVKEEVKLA
Procedure: as §1

[2] = Pharmacokinetic study in ICR mice (i.v. and p.o.); format: in vivo; conditions: male, mouse, plasma; for MRT inf: read-out: MRT0-inf
Procedure: Pharmacokinetics study was performed by Medicilon Preclinical Research (Shanghai) LLC. Male ICR mice, which were purchased from Sino‐British SIPPR Lab Animal Ltd., Shanghai (25–30 g, 14 weeks of age), were fasted overnight before administration and resumed food 6 h after initial plasma sampling. Compound was dissolved in solution containing 10% DMAC, 40% PEG‐400, and 50% water and was delivered to three animals by intravenous bolus injection (i.v.) and oral gavage (p.o.) at a dose of 5 and 20 mg kg^−1 with a volume of 5 and 10 mL kg^−1, respectively. Blood samples were collected at the following time points: 5, 15, 30 min and 1, 2, 4, 6, 8, and 24 h post dose administration. The blood samples were taken via submandibular vein, 30 µL/time point.
Sample were placed in tubes containing K2‐EDTA and stored on ice until centrifuged. The blood samples were centrifuged at 6800 g for 6 min at 2–8 °C within 1 h after collected and stored frozen at ≈−80 °C. A 20 µL plasma sample was treated with 400 µL of methanol containing 10 ng mL^−1 IS to precipitate the protein. The mix was then vortexed for a minute and centrifuged at 18 000 g for 7 min. The resulting supernatant (400 µL) was transferred to a 96‐well plate, and an injection of 1 µL of this supernatant was used for the LC‐MS/MS analysis. The animal protocols used in this study were approved by the Preclinical R&D Unit of Medicilon Institutional Animal Care and Use Committee (IACUC) (26030‐21002) and operated in accordance with the Guide for the Care and Use of Laboratory Animals published by the National Institutes of Health (NIH).

myristoylation of SHMT2 = assay: Click chemistry assay of SHMT2 myristoylation in HEK293T cells; format: cell-based; conditions: HEK293T cells, 0.25, 0.5 and 1 × 10^−6 M, 24 h
Procedure: For click chemistry experiment, HEK293T cells were first incubated with B6 for 24 h, followed by treatment with Alk14 for 4 h prior to harvest.
After the treatment mentioned in Section 4.2, HepG2 cells were lysed in 1% SDS lysis buffer (50 × 10^−3 M Tris‐HCl pH 8.0, 1% (w/v) SDS) with protease‐phosphatase inhibitor cocktail (ThermoFisher).^[ [47] ^] Click chemistry reactions were performed using commercially available reagents as per manufacturer instructions. 100 µg labeled protein was incubated with 50 µL of streptavidin magnetic beads overnight at 4 °C with end‐over‐end rotation. Following incubation, the beads were collected and rinsed three times with washing buffer. After the final wash, the supernatant was discarded, sample buffer was added to the beads and boiled at 95 °C for 5 min. The samples were further analyzed via western blotting using antibody specific for detection of endogenous SHMT2.

AML12 cells [3] = assay: FFA-induced lipid accumulation in AML12 cells (Oil Red O); format: cell-based; conditions: 24 h
HDAC6 = molecular target: T3, HDAC6 (Homo sapiens, UniProt Q9UBN7); assay: In vitro HDACs inhibition fluorescence assay, HDAC6; format: biochemical; conditions: mean ± SEM
T3 construct: purchased BPS Bioscience
T3 sequence (Q9UBN7 whole entry): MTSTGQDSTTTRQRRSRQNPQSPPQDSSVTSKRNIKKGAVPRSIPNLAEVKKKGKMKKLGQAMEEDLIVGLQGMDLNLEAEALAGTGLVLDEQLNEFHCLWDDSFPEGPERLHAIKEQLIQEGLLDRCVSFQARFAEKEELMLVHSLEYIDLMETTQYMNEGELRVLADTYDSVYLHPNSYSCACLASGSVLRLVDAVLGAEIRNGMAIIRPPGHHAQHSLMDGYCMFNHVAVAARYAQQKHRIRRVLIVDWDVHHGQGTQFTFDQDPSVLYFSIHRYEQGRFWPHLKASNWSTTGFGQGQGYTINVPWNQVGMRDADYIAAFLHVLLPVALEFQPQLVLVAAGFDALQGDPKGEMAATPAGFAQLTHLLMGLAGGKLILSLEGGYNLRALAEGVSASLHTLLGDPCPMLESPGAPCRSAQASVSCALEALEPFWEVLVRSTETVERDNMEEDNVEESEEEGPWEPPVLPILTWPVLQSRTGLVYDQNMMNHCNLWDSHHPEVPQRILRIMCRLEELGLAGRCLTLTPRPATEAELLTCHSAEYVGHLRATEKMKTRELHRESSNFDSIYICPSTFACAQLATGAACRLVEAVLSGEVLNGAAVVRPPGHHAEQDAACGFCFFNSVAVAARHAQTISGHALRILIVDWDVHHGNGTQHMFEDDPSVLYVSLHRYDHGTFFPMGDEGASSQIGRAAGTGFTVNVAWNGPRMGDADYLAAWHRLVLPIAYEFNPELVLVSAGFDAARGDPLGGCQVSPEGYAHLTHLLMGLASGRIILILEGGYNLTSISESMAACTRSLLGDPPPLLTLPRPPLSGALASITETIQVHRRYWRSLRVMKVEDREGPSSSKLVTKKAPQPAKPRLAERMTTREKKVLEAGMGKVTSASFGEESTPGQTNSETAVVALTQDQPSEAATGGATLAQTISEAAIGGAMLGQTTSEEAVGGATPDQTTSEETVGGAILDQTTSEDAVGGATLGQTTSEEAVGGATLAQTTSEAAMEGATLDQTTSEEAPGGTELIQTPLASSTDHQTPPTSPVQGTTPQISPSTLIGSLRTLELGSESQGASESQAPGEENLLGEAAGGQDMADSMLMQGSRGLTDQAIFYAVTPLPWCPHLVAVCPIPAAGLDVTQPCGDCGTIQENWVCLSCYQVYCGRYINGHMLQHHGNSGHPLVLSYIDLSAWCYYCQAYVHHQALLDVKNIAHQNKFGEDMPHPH
Procedure: as §1

HepG2 cells = assay: FFA-induced lipid accumulation in HepG2 cells (Oil Red O); format: cell-based, human; conditions: 24 h
Procedure: For the lipid accumulation experiment, HepG2 cells were incubated for 24 h in DMEM containing 0.5 × 10^−3 M of a mixture of free fatty acids (FFA; oleic acid: palmitic acid = 2:1) and 1% FFA‐free bovine serum albumin to induce intracellular lipid accumulation, together with B6 treatment.
Cells were fixed with 4% paraformaldehyde, followed by sequential staining with Oil Red O and hematoxylin.

HDAC11 = molecular target: T4, HDAC11 (Homo sapiens, UniProt Q96DB2); assay: HDAC11 inhibition fluorescence assay (ETDKmyr substrate); format: biochemical
T4 construct: The HDAC11 enzyme was a full‐length human recombinant HDAC enzyme sourced from BPS Bioscience; purchased BPS Bioscience
T4 sequence (Q96DB2 1-347): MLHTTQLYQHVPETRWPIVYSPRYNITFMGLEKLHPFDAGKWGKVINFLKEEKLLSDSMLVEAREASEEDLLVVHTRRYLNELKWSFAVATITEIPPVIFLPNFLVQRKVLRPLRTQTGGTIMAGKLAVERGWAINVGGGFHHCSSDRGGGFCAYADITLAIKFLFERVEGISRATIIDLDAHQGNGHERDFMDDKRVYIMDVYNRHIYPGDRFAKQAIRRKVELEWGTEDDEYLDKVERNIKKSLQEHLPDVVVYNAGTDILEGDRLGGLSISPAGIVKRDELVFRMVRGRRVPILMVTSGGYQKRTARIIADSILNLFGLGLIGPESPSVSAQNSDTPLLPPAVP
Procedure: The HDAC11 enzyme was a full‐length human recombinant HDAC enzyme sourced from BPS Bioscience. In detail, a total of 20 µL of recombinant HDAC11 enzyme solution (working concentration = 1 × 10^−9 M) was combined with varying concentrations of the test compound (20 µL) in a 96‐well black plate. The mixture was then incubated at a temperature of 30 °C for a duration of 1 h. Subsequently, 10 µL of the specific fluorogenic substrate (ETDKacyl‐Kmyr) was added. Following 2 h incubation at 30 °C, the catalytic reaction was ceased by adding 10 µL of a developer solution consisting of 2 mg mL^−1 trypsin and 5 × 10^−6 M trichostatin A (TSA). After a standing period of 6 h, the fluorescence intensity was assessed using a microplate reader at excitation and emission wavelengths of 360 and 460 nm, respectively. The inhibition ratios were calculated based on the fluorescence intensity readings of the test wells compared to the control wells. GraphPad Prism 8.0 software was employed to generate IC 50 curves and determine the corresponding IC 50 values utilizing the “log(inhibitor) versus normalized response‐variable slope” function.

[4] = ICR, po, 20 mg/kg, p.o. at 20 mg/kg

T1 sequence (Q9UKV0 whole entry): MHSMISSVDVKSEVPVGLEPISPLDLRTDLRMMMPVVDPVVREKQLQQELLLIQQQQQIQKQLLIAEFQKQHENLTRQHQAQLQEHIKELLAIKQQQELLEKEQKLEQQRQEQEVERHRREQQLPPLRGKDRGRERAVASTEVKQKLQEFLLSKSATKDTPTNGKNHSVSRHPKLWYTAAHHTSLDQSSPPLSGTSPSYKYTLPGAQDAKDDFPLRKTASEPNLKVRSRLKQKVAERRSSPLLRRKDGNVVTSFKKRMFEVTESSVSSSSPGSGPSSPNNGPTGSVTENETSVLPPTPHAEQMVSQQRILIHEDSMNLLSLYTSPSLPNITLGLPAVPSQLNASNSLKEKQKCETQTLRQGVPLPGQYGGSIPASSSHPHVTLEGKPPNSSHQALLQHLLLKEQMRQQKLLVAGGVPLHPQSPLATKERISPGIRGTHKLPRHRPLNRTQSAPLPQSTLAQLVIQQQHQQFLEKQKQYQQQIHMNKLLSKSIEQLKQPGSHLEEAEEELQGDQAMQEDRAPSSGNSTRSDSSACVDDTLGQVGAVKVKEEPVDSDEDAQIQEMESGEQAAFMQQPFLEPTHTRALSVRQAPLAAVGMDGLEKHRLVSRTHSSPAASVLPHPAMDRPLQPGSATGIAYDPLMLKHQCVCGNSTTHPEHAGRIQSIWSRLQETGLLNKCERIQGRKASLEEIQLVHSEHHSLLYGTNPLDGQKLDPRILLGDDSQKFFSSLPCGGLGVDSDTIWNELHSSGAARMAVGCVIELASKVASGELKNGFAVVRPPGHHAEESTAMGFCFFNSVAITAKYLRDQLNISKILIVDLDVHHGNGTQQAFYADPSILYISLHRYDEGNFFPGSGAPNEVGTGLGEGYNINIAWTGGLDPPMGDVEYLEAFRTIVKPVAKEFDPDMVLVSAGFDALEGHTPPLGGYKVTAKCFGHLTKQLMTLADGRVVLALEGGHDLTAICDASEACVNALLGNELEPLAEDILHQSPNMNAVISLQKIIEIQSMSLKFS

## CCCCCOCCCCCNNC(=O)c1ccc(CNC(=O)c2ccccc2)cc1 [B6]
AML12 cells [1]
  FFA-inhibited mitochondrial activity (Mito-Tracker staining): ameliorated
AML12 cells [1]; FFA
  mitochondrial stress test (OCR, basal and maximal respiration): partially restored mitochondrial activity
HDAC9
  IC50: > 10 µM
HDAC1
  IC50: > 10 µM
[2]; [4]
  AUC(0-inf): 3480 ng·h/mL
  Cmax: 2610 ng/mL
[2]; iv, i.v. at 5 mg/kg
  half-life: 3.8 h
  clearance: 39.5 ± 13.5 mL/min/kg
  MRT inf: 0.23 ± 0.02 h
[2]; oral, p.o. at 20 mg/kg vs i.v. at 5 mg/kg, read-out: oral bioavailability (F%)
  bioavailability: 34.5%
[2]; po, p.o. at 20 mg/kg
  MRT inf: 2.6 ± 0.8 h
  half-life: 2.3 h
Myristoylation of SHMT2
  myristoylation of SHMT2: markedly increase
AML12 cells [3]
  concentration of maximal effect on lipid accumulation: 500 nM
AML12 cells [3]; various concentrations
  FFA-induced lipid accumulation: significantly mitigated
HDAC6
  IC50: > 10 µM
HepG2 cells
  FFA-induced lipid accumulation: Comparable reduction in lipid accumulation
HDAC11
  IC50: 0.0511 µM
